# Article PMC11511194, “Key Factors for Improving Predictive Accuracy and Avoiding Overparameterization of the PBPK Absorption Model in Food Effect Studies of Weakly Basic Water-Insoluble Compounds in Immediate Release Formulations” (Pharmaceutics, 2024)
# Like-named read-outs stand apart in the source and are kept apart here.
# How the values were obtained:
# [1] = cited from earlier work
# physchem = settings: for User log K m:w, ion / User log K m:w, neutral: bile micelle to buffer partition, Evaluated by SIVA software
# Procedure: In this manuscript, PBPK absorption models were developed using SimCYP software (version 20, Sheffield, UK, Certara Company), while the primary solubility parameters were evaluated utilizing SIVA software (version 4, Sheffield, UK, Certara Company). The comprehensive process of parameter evaluation is as follows: Intrinsic solubility (So) and salt limiting solubility factor (SF) values were obtained according to the solubility of the API in different aqueous media and the Henderson–Hasselbalch equation (Equation (1)). Subsequently, the bile micelle to buffer partition coefficients (Km:w) in both ionized (Km:w, ionized) and un-ionized (Km:w, un-ionized) states were evaluated based on the solubility of the APIs in FaSSGF, FaSSIF, and FeSSIF media, employing Equation (1). (1) STot=So×Soscalart×1+BSt/CH2O×Km:w, un-ionized+Sit×1+BSt/CH2O×Km:w, ionized+Sbound,excipt where t is the time; STot is the total solubility of the drug in a given medium (aqueous or biorelevant medium); So is the intrinsic solubility of the drug; Soscalar is the scalar for So used to capture the increased solubility of the drug in a given medium; Si is the ionized aqueous solubility; [BS] is the bile salt concentration in a given biorelevant medium; CH2O is the concentration of water; Km:w, ionized/un-ionized are the bile micelle/buffer partition coefficients for ionized and un-ionized species, respectively; and Sbound, excip is the amount of drug bound to the excipient at a given excipient concentration.
# [2] = Particle size distribution of the APIs (laser diffraction, dry method); format: physicochemical; settings: API bulk drug
# Procedure: The particle size of the API directly influences the dissolution rate of formulations and the overall bioavailability of the compound, making it a necessary parameter for establishing the PBPK absorption model. To determine the particle size distributions of the APIs employed in the formulation of rivaroxaban, ticagrelor, and PB-201, the bulk drugs used in the corresponding formulations were measured by the dry method with a Malvern Mastersizer laser diffraction size analyzer (Master 2000, Malvern Instruments Limited, Malvern, UK). Each sample was tested once.
# [3] = Two-stage biorelevant dissolution (transfer test FaSSGF to FaSSIF); format: physicochemical; settings: formulation, gastric to intestinal chamber in vitro
# Procedure: Because the solubility of weakly basic water-insoluble compounds is higher in the acidic gastric environment compared to the near-neutral intestinal environment, and that bile salts can enhance the solubility of poorly soluble drugs in the intestine, a two-stage dissolution test was performed to explore the drug transfer process from the stomach to the intestine. The transfer apparatus comprised two USP 2 vessels representing the gastric and intestinal chambers, which are interconnected via a peristaltic pump to simulate first-order gastric emptying dynamics. […] Additional samples in the two-stage dissolution test were analyzed every minute with the same instrument. […]
# Precipitation parameters, such as critical supersaturation ratio (CSC) and precipitation rate constant (PRC), were evaluated when precipitation occurs in the neutral intestinal environment after the mixture of solution and undissolved substance is transferred from the gastric chamber in vitro. These parameters were evaluated by fitting the two-stage dissolution profile according to the crystallization kinetics equations [28, 29, 30]. […] The calibrated permeability of drugs, as determined using the Caco-2 Transwell model, was used to represent the permeability of drugs in vivo [31]. […]
SMILES,"Fraction unbound in plasma ([1]; rivaroxaban, supplement ref 2)","Blood-to-plasma partition ratio ([1]; rivaroxaban, supplement ref 7)",solubility (physchem; aqueous buffer) [µg/mL],"User log K m:w, ion (physchem)","User log K m:w, neutral (physchem)",D (0.1) [2] [μm],D (0.5) [2] [μm],D (0.9) [2] [μm],behaviour after transfer from FaSSGF to FaSSIF [3],"Blood-to-plasma partition ratio ([1]; ticagrelor, supplement ref 18)","Fraction unbound in plasma ([1]; ticagrelor, supplement ref 18)"
O=C(NC[C@H]1CN(c2ccc(N3CCOCC3=O)cc2)C(=O)O1)c1ccc(Cl)s1 [Rivaroxaban],0.065,0.714,5,3.894,3.330,3.809,7.955,15.532,continued to dissolve,–,–
CCCSc1nc(N[C@@H]2C[C@H]2c2ccc(F)c(F)c2)c2nnn([C@@H]3C[C@H](OCCO)[C@@H](O)[C@H]3O)c2n1 [Ticagrelor],–,–,–,8.226,5.941,3.045,6.926,13.605,continued to dissolve,0.592,0.006
